Assay results published in patent EP1935887A1, “Heterocyclic substituted carbonyl derivatives and their use as dopamine D3 receptor ligands” (Aventis Pharmaceuticals Inc., priority 2001, dated 2002).

Target: T1, CLONED HUMAN ALPHA-1A ADRENERGIC RECEPTORS (α1a) (Homo sapiens, UniProt P35348)
T1 construct: expressed in transfected cells; host or cells: CHO cells, G418-resistant clone #7, vector pcDNA3; membranes
T1 sequence (P35348 1-466): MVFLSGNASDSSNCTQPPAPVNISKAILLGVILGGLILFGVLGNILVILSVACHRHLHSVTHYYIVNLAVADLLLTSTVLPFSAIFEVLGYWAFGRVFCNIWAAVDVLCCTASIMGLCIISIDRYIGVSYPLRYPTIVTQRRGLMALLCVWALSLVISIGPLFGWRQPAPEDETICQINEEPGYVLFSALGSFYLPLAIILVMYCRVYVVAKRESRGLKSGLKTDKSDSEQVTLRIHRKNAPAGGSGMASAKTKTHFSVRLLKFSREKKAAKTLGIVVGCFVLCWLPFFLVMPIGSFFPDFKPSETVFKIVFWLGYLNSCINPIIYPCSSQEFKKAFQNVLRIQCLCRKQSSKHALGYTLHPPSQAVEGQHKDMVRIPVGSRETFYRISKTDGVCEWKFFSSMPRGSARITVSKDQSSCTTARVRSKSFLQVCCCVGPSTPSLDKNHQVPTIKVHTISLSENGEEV
Experiment: [3H]Prazosin binding to cloned human alpha-1A adrenergic receptors expressed in CHO cells
Description: ^3H]PRAZOSIN BINDING TO CLONED HUMAN ALPHA-1A ADRENERGIC RECEPTORS (α1a) EXPRESSED IN CHINESE HAMSTER OVARY CELLS (CHO)
• purpose: This in vitro assay is designed as a screen to identify compounds displaying a affinity for the human α1a adrenoceptor subtype expressed in the membrane fragments of CHO cells. The assay measures the ability of the test compounds to displace [^3H] prazosin from α1a sites. The identification of multiple vascular α1-addrenoceptors (α1a, α1b, α1d) in vitro has provided impetus to define the role(s) of these subtypes in cardiovascular regulation in vivo (Vargas and Gorman, 1995). […] Therefore, the binding of compounds to α1a adrenergic receptors is believed to be a good measure of a compound's potential to cause orthostatic hypotension and sedation as side effects. Prazosin is a potent antagonist of the human α1a-adrenoceptor subtype, which has been cloned and is expressed in the membrane fragments of CHO cells. • hα1areceptor: The cloning of the human α1a cDNA was accomplished first by screening a human prostate cDNA library (Clontech), from which a portion of the coding region was obtained. This DNA fragment was then used to screen a human leukocyte genomic library (Clontech), and the rest of the coding sequence was obtained. Later these two fragments were spliced together. The entire coding sequence was then fully sequenced including matching PCR sequence with original genomic coding sequence, thus ensuring splice sites were joined correctly (Schwinn et al., 1995). Once sequenced, the gene was subcloned into the expression vector pcDNA3 (Invitrogen). Plasmid DNA was then used for transfection into CHO cells and G418 resistant clones were isolated. A clone expressing high levels of the hα1a receptor (as determined by mRNA and receptor binding data) was chosen and pharmacologically characterized. • Culture Media: Media Ingredients for Adherent α1a expressing CHO Culture: • A. HAM's F-12 (Cellgro) • B. 10% 0.2 micron filtered Fetal Bovine Serum (FBS)(Cellgro) • C. 1% 0.2 micron filtered Penicillin-Streptomycin (Cellgro) • D. G418 0.2 micron filtered (Geneticin 400µg/ml)(Cellgro) Cells are cultured using established methods and procedures in either 150x25mm culture plates (scale up to 100 plates) or a combination of these plates and 70 roller bottles. One culturing/harvest cycle typically requires 2 weeks and yields between 100-400mg protein. Plates or bottles are incubated at 37°C + 5% CO2. • Storage: Cells are harvested by mechanical scraping, washed using PBS, collected in 250ml Corning polypropylene centrifuge tubes, spun down (1500RPM) and resuspended in dH2O 10% DMSO (final volume per harvest is approximately 50ml). Protein determination is made using the Biorad DC Assay Kit. […] Bd. = 50µl 10µM phentolamine+50 µl [^3H]prazosin+100µl membrane Test Cpd. = 50µl compound + 50µl [^3H]prazosin + 100µl membrane Compounds to be evaluated are weighed out to yield a 10 mM stock solution in DMSO in a 24 well polystyrene plate. This is diluted to a 0.5 mM stock in dH2O. Serial dilutions in Buffer A are made from which 50 µl additions to the plate are made in duplicate in order to achieve the final concentrations desired. Typically, one 96 well plate is used to evaluate 11 compounds at 4 concentrations (10^-6-10^-9 M) in duplicate. Total binding and nonspecific binding are determined in quadruplicate. Usually one standard is run with each assay. [^3H]Prazosin is made up in Buffer A such that when 50 µl are added per well the final concentration is 1.0 nM in a final assay volume of 200 µl. The final concentration should be verified by running a sample in a scintillation counter prior to adding the [^3H]prazosin to the 96 well plate. Note: The radioactivity should be prepared just before the additions are made so that it is not allowed to sit on the bench for very long. […]

SMILES | halpha1 % I h=human (@ 1 uM) [% Inh @ 1 uM] | other results
C[C@H]1CC[C@H](NC(=O)CCCN2CCN(c3csc4cc(C(F)(F)F)ccc34)CC2)CC1 [compound 826804] | 32.8 | –
CCOC(=O)[C@H]1CC[C@H](NC(=O)CCCN2CCN(c3csc4cc(C(F)(F)F)ccc34)CC2)CC1 [compound 826805] | 27.8 | –
CC[C@H]1CC[C@H](NC(=O)CCCN2CCN(c3csc4cc(C(F)(F)F)ccc34)CC2)CC1 [compound 826806] | 10.3 | –
CCN(C(=O)CCCN1CCN(c2csc3cc(C(F)(F)F)ccc23)CC1)C1CCCCC1 [compound 826809] | 30.5 | –
CC1(C)CCCN(C(=O)CCCN2CCN(c3csc4cc(C(F)(F)F)ccc34)CC2)C1 [compound 826817] | 44.4 | –
O=C(CCCN1CCN(c2csc3cc(C(F)(F)F)ccc23)CC1)NC1CCCCC1 [compound 826821] | – | halpha1 % I h=human (@ 0.1 nM): 24% Inh @ 0.1 nM
CC1CCCN(C(=O)CCCN2CCN(c3csc4cc(F)ccc34)CC2)C1 (stereo not shown) [compound 826855] | – | Ki (human alpha-1 receptor, read-out: halpha1Ki (nM) h=human): 0.689 nM
